Source: patent publication US12343472B2, “Powder preparation, cartridge, and device” (Shin Nippon Biomedical Laboratories, Ltd., priority 2018, dated 2025)
Values joined by “and” are separate entries in the source; they are usually repeats but may differ in a detail not shown here. Equal entries are not always repeated. Where two headings read alike, the source gives them in different places.

Legend:
[1] = Blood oxytocin concentration in monkey (EIA); assay type: in vivo, cynomolgus monkey; conditions: for AUC0-t / Cmax: blood oxytocin
Method: (§1) In order to measure the blood oxytocin concentration, blood was collected from the femoral vein with a syringe (dispensed into an EDTA-2K-containing blood collection tube) before administration and 2, 5, 10, 30, 60, 120, 240 and 480 minutes after administration (9 times in total). In order to measure the cerebrospinal fluid oxytocin concentration, cerebrospinal fluid was collected via a catheter indwelled in the cisterna magna before administration and 10, 30, 60, 120, 240 and 480 minutes after administration (7 times in total). The oxytocin concentration was measured by an EIA method involving an Oxytocin Enzyme Immunoassay Kit: Extraction-Free (Peninsula Laboratories International). This test was performed after being approved by the Animal Experimentation Ethics Committee of SNBL, Ltd.

[2] = in vivo; conditions: male, cynomolgus monkey, iv
Method: as §1

[3] = intravenous, individual animals

Blood oxytocin concentration ([1]; 120 min, intravenous, individual animals): 0.00 ng/mL (5×) and 1.10 ng/mL
Blood oxytocin concentration ([1]; 240 min, intravenous, average n=6): 0.00 ng/mL
Blood oxytocin concentration ([1]; 240 min, intravenous, individual animals): 0.00 ng/mL
Blood oxytocin concentration ([1]; 480 min, intravenous, average n=6): 0.00 ng/mL
Blood oxytocin concentration ([1]; 480 min, intravenous, individual animals): 0.00 ng/mL
AUC0-t ([1]; male, cynomolgus monkey, blood, iv, intravenous, average n=6, read-out: AUC0-t (converted)): 37.5 ng·h/mL
Cmax ([1]; male, cynomolgus monkey, blood, iv, intravenous, average n=6, read-out: Cmax): 206 ng/mL
AUC0-t ([1]; male, cynomolgus monkey, blood, iv, intravenous, individual animals, read-out: AUC0-t (converted)): 38.1 ng·h/mL
Cmax ([1]; male, cynomolgus monkey, blood, iv, intravenous, individual animals, read-out: Cmax): 222 ng/mL
level at […] ([1]; male, cynomolgus monkey, blood, 2 min, intravenous, average n=6): 206 ng/mL
level at […] ([1]; male, cynomolgus monkey, blood, 5 min, intravenous, average n=6): 94.7 ng/mL
level at […] ([1]; male, cynomolgus monkey, blood, 10 min, intravenous, average n=6): 52.3 ng/mL
level at 0.5 h ([1]; male, cynomolgus monkey, blood, 30 min, intravenous, average n=6): 10.9 ng/mL
level at 1 h ([1]; male, cynomolgus monkey, blood, 60 min, intravenous, average n=6): 3.02 ng/mL
level at 2 h ([1]; male, cynomolgus monkey, blood, 120 min, intravenous, average n=6): 0.18 ng/mL
level at 0.5 h [2]: 0.204 ng/mL
level at 1 h [2]: 0.11 ng/mL
level at 2 h [2]: 0.057 ng/mL
level at 4 h [2]: 5 pg/mL
Compound: CC[C@H](C)[C@@H]1NC(=O)[C@H](Cc2ccc(O)cc2)NC(=O)[C@@H](N)CSSC[C@@H](C(=O)N2CCC[C@H]2C(=O)N[C@@H](CC(C)C)C(=O)NCC(N)=O)NC(=O)[C@H](CC(N)=O)NC(=O)[C@H](CCC(N)=O)NC1=O [Comparative Example 13, oxytocin]
Blood oxytocin concentration ([1]; 2 min, oxytocin solution (0.4 mg/mL) intravenous, individual animals): 222.00 ng/mL and 246.00 ng/mL and 205.00 ng/mL and 168.00 ng/mL and 202.00 ng/mL and 190.00 ng/mL
Blood oxytocin concentration ([1]; 5 min, intravenous, individual animals): 110.00 ng/mL and 101.00 ng/mL and 116.00 ng/mL and 68.00 ng/mL and 68.40 ng/mL and 105.00 ng/mL
Blood oxytocin concentration ([1]; 10 min, intravenous, individual animals): 48.40 ng/mL and 64.20 ng/mL and 55.10 ng/mL and 40.40 ng/mL and 50.00 ng/mL and 55.70 ng/mL
Blood oxytocin concentration ([1]; 30 min, intravenous, individual animals): 10.50 ng/mL and 15.00 ng/mL and 11.80 ng/mL and 7.10 ng/mL and 9.60 ng/mL and 11.60 ng/mL
Blood oxytocin concentration ([1]; 60 min, intravenous, individual animals): 2.80 ng/mL (2×) and 4.50 ng/mL and 2.90 ng/mL and 2.50 ng/mL and 2.60 ng/mL
AUC0-t [1, 3]: 47.345 ng·h/mL and 39.252 ng·h/mL and 28.695 ng·h/mL and 34.345 ng·h/mL and 37.415 ng·h/mL
Cmax [1, 3]: 246.00 ng/mL and 205.00 ng/mL and 168.00 ng/mL and 202.00 ng/mL and 190.00 ng/mL
